Laboratory results as given in ChEMBL document CHEMBL4842331, “Targeted Discovery of the Polyene Macrolide Hexacosalactone A from Streptomyces by Reporter-Guided Selection of Fermentation Media” (J Nat Prod, 2021).
≈ marks a conversion by molar mass, not a printed value. Calls of active or inactive are those of the source. No cut-off for these calls is given here.

Assays:
[1] = tested on: Proteus vulgaris; experiment: Antibacterial activity against Proteus vulgaris CPCC 160013 assessed as inhibition of bacterial growth by paper disk diffusion method; type: functional
[2] = tested on: Staphylococcus aureus; experiment: Antibacterial activity against Staphylococcus aureus ATCC 25923 assessed as inhibition of bacterial growth by paper disk diffusion method; type: functional
[3] = tested on: Mycolicibacterium smegmatis; experiment: Antibacterial activity against Mycobacterium smegmatis mc2 155 assessed as inhibition of bacterial growth at 20 ug/disk by paper disk diffusion method; type: functional, organism-based; conditions: dose 20.0 µg
[4] = tested on: Salmonella typhimurium; experiment: Antibacterial activity against Salmonella enterica serovar typhimurium UK-1X8956 assessed as inhibition of bacterial growth at 20 ug/disk by paper disk diffusion method; type: functional, organism-based; conditions: Salmonella enterica subsp. enterica serovar Typhimurium, dose 20.0 µg
[5] = tested on: Escherichia coli; experiment: Antibacterial activity against Escherichia coli DH5alpha assessed as inhibition of bacterial growth at 20 ug/disk by paper disk diffusion method; type: functional, organism-based; conditions: DH5[alpha], dose 20.0 µg
[6] = tested on: Pseudomonas aeruginosa; experiment: Antibacterial activity against Pseudomonas aeruginosa PAO1 assessed as inhibition of bacterial growth at 20 ug/disk by paper disk diffusion method; type: functional, organism-based; conditions: dose 20.0 µg
[7] = tested on: MDA-MB-231; experiment: Cytotoxicity against human MDA-MB-231 cells assessed as reduction in cell viability by MTT assay; type: functional, cell-based
[8] = tested on: NCI-H1299; experiment: Cytotoxicity against human NCI-H1299 cells assessed as reduction in cell viability by MTT assay; type: functional, cell-based
[9] = tested on: K562; experiment: Cytotoxicity against human K562 cells assessed as reduction in cell viability by MTT assay; type: functional, cell-based
[10] = tested on: Alternaria alternata; experiment: Antifungal activity against Alternaria alternata assessed as inhibition of fungal growth at 20 ug/disk by paper disk diffusion method; type: functional, organism-based; conditions: dose 20.0 µg
[11] = tested on: Rhizoctonia solani; experiment: Antifungal activity against Rhizoctonia solani assessed as inhibition of fungal growth at 20 ug/disk by paper disk diffusion method; type: functional, organism-based; conditions: dose 20.0 µg
[12] = tested on: Botryosphaeria dothidea; experiment: Antifungal activity against Botryosphaeria dothidea assessed as inhibition of fungal growth at 20 ug/disk by paper disk diffusion method; type: functional, organism-based; conditions: dose 20.0 µg
[13] = tested on: Valsa ambiens; experiment: Antifungal activity against Valsa ambiens assessed as inhibition of fungal growth at 20 ug/disk by paper disk diffusion method; type: functional, organism-based; conditions: Cytospora leucosperma; dose 20.0 µg
[14] = tested on: Phytophthora capsici; experiment: Antifungal activity against Phytophthora capsici assessed as inhibition of fungal growth at 20 ug/disk by paper disk diffusion method; type: functional, organism-based; conditions: dose 20.0 µg

In the case of `CO[C@@H]1C[C@H](O)[C@@H](C)[C@H](O)[C@@H](C)C[C@@H](C)C(=O)C(C)[C@H](C(C)C)OC(=O)/C(C)=C/C=C/C(C)=C/C=C/C(C)=C\C[C@H](OC(=O)/C=C/C(=O)NC2=C(O)CCC2=O)[C@@H]1C` (some centres undefined), the MIC [1] is reported as 12.5 µg/mL (≈ 15.4 µM), the MIC [2] is reported as 12.5 µg/mL (≈ 15.4 µM) and the Activity [3] is reported as “inactive”. The Activity [4] was “inactive”, the Activity [5] was “inactive” and the Activity [6] was “inactive”. It also gave an IC50 [7] of over 20 µM, an IC50 [8] of over 20 µM and an IC50 [9] of over 20 µM. For the same compound, the Activity [10] was “inactive”, the Activity [11] was “inactive” and the Activity [12] was “inactive”. For the same compound, the Activity [13] was “inactive” and the Activity [14] was “inactive”.
